# Source: patent US20240158446A1, “CYCLIC COMPOUND HAVING SELECTIVE INHIBITORY ACTION ON KRAS OVER HRAS AND NRAS” (CHUGAI SEIYAKU KABUSHIKI KAISHA, priority 2021, published 2024)
# Key:
# [1] = molecular target: GDP-bound KRAS wild-type protein (Homo sapiens, UniProt P01116); assay: Binding to KRAS by surface plasmon resonance (SPR), Single Cycle Kinetics; details: SPR, Single Cycle Kinetics, 1:1 binding model; GDP-bound KRAS wild-type protein; read-out: KRAS KD
# [2] = molecular target: GDP-bound NRAS wild-type protein (Homo sapiens, UniProt P01111); assay: Binding to NRAS by surface plasmon resonance (SPR), Single Cycle Kinetics; details: SPR; GDP-bound NRAS wild-type protein vs GDP-bound KRAS wild-type protein; KD ratio class
# [3] = molecular target: GDP-bound HRAS wild-type protein (Homo sapiens, UniProt P01112); assay: Binding to HRAS by surface plasmon resonance (SPR), Single Cycle Kinetics; details: SPR; GDP-bound HRAS wild-type protein vs GDP-bound KRAS wild-type protein; KD ratio class
# GDP-bound HRAS wild-type protein, sequence (P01112 whole entry): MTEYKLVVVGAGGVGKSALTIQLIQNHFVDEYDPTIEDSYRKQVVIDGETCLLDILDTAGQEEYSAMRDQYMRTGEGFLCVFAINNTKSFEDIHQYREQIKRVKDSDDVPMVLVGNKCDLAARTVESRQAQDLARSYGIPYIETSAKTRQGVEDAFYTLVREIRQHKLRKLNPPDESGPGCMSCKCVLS
# GDP-bound KRAS wild-type protein, sequence (P01116 whole entry): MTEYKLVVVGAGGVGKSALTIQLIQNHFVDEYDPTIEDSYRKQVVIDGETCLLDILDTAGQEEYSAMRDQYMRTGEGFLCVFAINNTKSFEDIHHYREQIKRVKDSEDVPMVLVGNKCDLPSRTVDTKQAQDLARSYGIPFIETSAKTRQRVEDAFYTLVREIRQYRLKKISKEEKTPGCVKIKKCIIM
# GDP-bound NRAS wild-type protein, sequence (P01111 whole entry): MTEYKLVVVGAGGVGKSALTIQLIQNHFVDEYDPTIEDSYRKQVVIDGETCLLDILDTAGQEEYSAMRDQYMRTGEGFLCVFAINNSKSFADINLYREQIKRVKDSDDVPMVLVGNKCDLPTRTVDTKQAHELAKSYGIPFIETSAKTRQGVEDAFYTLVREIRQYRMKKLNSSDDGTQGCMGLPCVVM
SMILES,Kd [1],NRAS/KRAS (ratio of KD value for NRAS to KD value for KRAS) [2],HRAS/KRAS (ratio of KD value for HRAS to KD value for KRAS) [3]
CCO[C@@H]1C[C@H]2C(=O)NC3(CCC3)C(=O)N(C)[C@@H](C3CCCC3)C(=O)N(C)[C@H](C(=O)N(C)CC)CC(=O)N(C)[C@@H](CC)C(=O)N[C@@H]([C@@H](C)CC)C(=O)N(C)CC(=O)N(C)[C@H]3C/C=C\CCN(C3=O)[C@@H](CC3CCCCC3)C(=O)N(C)CC(=O)N[C@@H](CCc3cc(F)c(C(F)(F)F)c(F)c3)C(=O)N2C1 [PP1552],190 pM,A (a compound having 10 or more and less than 20 is denoted as A),A (a compound having 10 or more and less than 20 is denoted as A)
"CCO[C@@H]1C[C@H]2C(=O)NC3(CCC3)C(=O)N(C)[C@@H](C3CCCC3)C(=O)N(C)[C@H](C(=O)N(C)CC)CC(=O)N(C)[C@@H](CC)C(=O)N[C@@H]([C@@H](C)CC)C(=O)N(C)CC(=O)N(C)[C@H]3C/C=C\CCN(C3=O)[C@@H](CC3CCC(F)(F)CC3)C(=O)N(C)CC(=O)N[C@@H](CCc3cc(F)c(C(F)(F)F)c(F)c3)C(=O)N2C1 [PP1553, (2S,8S,12R,14S,20S,23S,27S,30S,36S,38Z)-20-cyclopentyl-2-[(4,4-difluorocyclohexyl)methyl]-8-[2-[3,5-difluoro-4-(trifluoromethyl)phenyl]ethyl]-12-ethoxy-N,27-diethyl-N,4,19,22,26,32,35-heptamethyl-30-[(1S)-1-methylpropyl]-3,6,9,15,18,21,25,28,31,34,42-undecaoxo-spiro[1,4,7,10,16,19,22,26,29,32,35-undecazatricyclo[34.5.1.0^10,14]dotetracont-38-ene-17,1′-cyclobutane]-23-carboxamide]",130 pM,A (a compound having 10 or more and less than 20 is denoted as A),A (a compound having 10 or more and less than 20 is denoted as A)
CCO[C@@H]1C[C@H]2C(=O)NC3(CC(C)(C)C3)C(=O)N(C)[C@@H](C3CCCC3)C(=O)N(C)[C@H](C(=O)N(C)C)CC(=O)N(C)[C@@H](CC3CC3)C(=O)N[C@@H]([C@@H](C)CC)C(=O)N(C)CC(=O)N(C)[C@H]3C/C=C\CCN(C3=O)[C@@H](Cc3ccc(C(F)(F)F)cc3)C(=O)N(C)CC(=O)N[C@@H](CCc3ccc(C(F)(F)F)c(OC)c3)C(=O)N2C1 [PP1563],48 pM,A (a compound having 10 or more and less than 20 is denoted as A),A (a compound having 10 or more and less than 20 is denoted as A)

# Further lines, with some results ahead:
Kd [1],SMILES,NRAS/KRAS (ratio of KD value for NRAS to KD value for KRAS) [2],HRAS/KRAS (ratio of KD value for HRAS to KD value for KRAS) [3]
47 pM,CCO[C@@H]1C[C@H]2C(=O)NC3(CC(C)(C)C3)C(=O)N(C)[C@@H](C3CCCC3)C(=O)N(C)[C@H](C(=O)N(C)C)CC(=O)N(C)[C@@H](CC)C(=O)N[C@@H]([C@@H](C)CC)C(=O)N(C)CC(=O)N(C)[C@H]3C/C=C\CCN(C3=O)[C@@H](Cc3ccc(C(F)(F)F)cc3)C(=O)N(C)CC(=O)N[C@@H](CCc3ccc(C(F)(F)F)c(OC)c3)C(=O)N2C1 [PP1559],A (a compound having 10 or more and less than 20 is denoted as A),A (a compound having 10 or more and less than 20 is denoted as A)
69 pM,CCC[C@H]1C(=O)N[C@@H]([C@@H](C)CC)C(=O)N(C)CC(=O)N(C)[C@H]2C/C=C\CCN(C2=O)[C@@H](Cc2ccc(C(F)(F)F)cc2)C(=O)N(C)CC(=O)N[C@@H](CCc2ccc(C(F)(F)F)c(OC)c2)C(=O)N2C[C@H](OCC)C[C@H]2C(=O)NC2(CC(C)(C)C2)C(=O)N(C)[C@@H](C2CCCC2)C(=O)N(C)[C@H](C(=O)N(C)C)CC(=O)N1C [PP1560],A (a compound having 10 or more and less than 20 is denoted as A),B (a compound having 3 or more and less than 10 is denoted as B)
